Reference: patent US20230399341A1, “7-PHENYL SUBSTITUTED 2-AMINOQUINAZOLINE INHIBITORS OF HPK1” (MERCK SHARP & DOHME LLC, priority 2020, published 2023)

The molecules below were run against T1, Human HPK1, catalytic domain (Homo sapiens, UniProt Q92918) (assay: HPK1-SLP76 TR-FRET Assay). Conditions: 75 pM HPK1, ATP 10 uM, SLP76 10 nM, 30 min pre-incubation, 60 min reaction.
T1 sequence (Q92918 1-346): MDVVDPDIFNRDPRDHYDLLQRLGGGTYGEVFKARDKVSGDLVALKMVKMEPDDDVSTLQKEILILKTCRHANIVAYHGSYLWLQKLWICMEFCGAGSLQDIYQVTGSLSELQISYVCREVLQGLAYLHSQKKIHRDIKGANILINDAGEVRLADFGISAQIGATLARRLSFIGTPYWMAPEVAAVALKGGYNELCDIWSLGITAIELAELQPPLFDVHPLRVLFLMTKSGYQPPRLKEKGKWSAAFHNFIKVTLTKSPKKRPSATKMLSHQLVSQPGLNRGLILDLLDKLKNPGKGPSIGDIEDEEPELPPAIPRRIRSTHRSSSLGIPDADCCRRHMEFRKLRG
Type: biochemical

Structure (SMILES)	IC50 [nM]
COc1cc2c(cc1Nc1ncc3ccc(-c4cccc(C5CCC(=O)N5)c4)cc3n1)CN(C)CC2 (racemic) [Compound 1-99, (R and S)-5-(3-{2-[(6-methoxy-2-methyl-1,2,3,4-tetrahydroisoquinolin-7-yl)amino]quinazolin-7-yl}phenyl)pyrrolidin-2-one]	120
COc1cc2c(cc1Nc1ncc3ccc(-c4cnn(CC(C)O)c4)cc3n1)CN(C)CC2 (racemic) [Compound 1-102, (R and S)-1-(4-{2-[(6-methoxy-2-methyl-1,2,3,4-tetrahydroisoquinolin-7-yl)amino]quinazolin-7-yl}-1H-pyrazol-1-yl)propan-2-ol]	22.2
COc1cc2c(cc1Nc1ncc3c(N)c(F)c(-c4cnc5c(c4C)NCCO5)cc3n1)C(CO)N(C)CC2 (racemic) [Compound 2-46, (R and S)-(7-{[5-amino-6-fluoro-7-(8-methyl-2,3-dihydro-1H-pyrido[2,3-b][1,4]oxazin-7-yl)quinazolin-2-yl]amino}-6-methoxy-2-methyl-1,2,3,4-tetrahydroisoquinolin-1-yl)methanol]	3.09
COc1cc2c(cc1Nc1ncc3c(N)c(F)c(-c4cnc5c(c4C)NCCO5)cc3n1)C(C)N(C)C(C)C2 (racemic) [Compound 2-48, (R,R and S,S)-6-fluoro-N~2~-(6-methoxy-1,2,3-trimethyl-1,2,3,4-tetrahydroisoquinolin-7-yl)-7-(8-methyl-2,3-dihydro-1H-pyrido[2,3-b][1,4]oxazin-7-yl)quinazoline-2,5-diamine]	0.696
Cc1c(-c2cc3nc(Nc4ccc5c(c4)C4CC5CN4C)ncc3c(N)c2F)cnc2c1NCCO2 (racemic) [Compound 2-79, (R,S and S,R)-6-fluoro-N2-(2-methyl-1,2,3,4-tetrahydro-1,4-methanoisoquinolin-7-yl)-7-(8-methyl-2,3-dihydro-1H-pyrido[2,3-b][1,4]oxazin-7-yl)quinazoline-2,5-diamine]	0.0305
COc1cc2c(cc1Nc1ncc3ccc(N4CC5(CCOC5)OC4=O)cc3n1)CN(C)CC2 (racemic) [Compound 3-3, (S and R)-3-{2-[(6-methoxy-2-methyl-1,2,3,4-tetrahydroiso-quinolin-7-yl)amino]quinazolin-7-yl}-1,7-dioxa-3-azaspiro[4.4]-nonan-2-one]	391
COc1cc2c(cc1Nc1ncc3ccc(N4CC(CO)OC4=O)cc3n1)CN(C)CC2 (racemic) [Compound 3-4, (S and R)-5-(hydroxymethyl)-3-{2-[(6-methoxy-2-methyl-1,2,3,4-tetrahydroisoquinolin-7-yl)amino]quinazolin-7-yl}-1,3-oxazolidin-2-one]	9.36
COc1cc2c(cc1Nc1ncc3ccc(N4CC(C)(CO)OC4=O)cc3n1)CN(C)CC2 (racemic) [Compound 3-7, (S and R)-5-(hydroxymethyl)-3-{2-[(6-methoxy-2-methyl-1,2,3,4-tetrahydroisoquinolin-7-yl)amino]quinazolin-7-yl}-5-methyl-1,3-oxazolidin-2-one]	45.5
COc1cc2c(cc1Nc1ncc3ccc(N4CC5(CCCNCC5)OC4=O)cc3n1)CN(C)CC2 (racemic) [Compound 3-8, (S and R)-3-{2-[(6-methoxy-2-methyl-1,2,3,4-tetrahydroiso-quinolin-7-yl)amino]quinazolin-7-yl}-1-oxa-3,8-diazaspiro[4.6]-undecan-2-one]	92.6
COc1cc2c(cc1Nc1ncc3ccc(N4CC(C(C)(C)O)OC4=O)cc3n1)CN(C)CC2 (racemic) [Compound 3-9, (S and R)-5-(2-hydroxypropan-2-yl)-3-{2-[(6-methoxy-2-meth-yl-1,2,3,4-tetrahydroisoquinolin-7-yl)amino]quinazolin-7-yl}-1,3-oxazolidin-2-one]	63
COc1cc2c(cc1Nc1ncc3ccc(N4CC(CN)OC4=O)cc3n1)CN(C)CC2 (racemic) [Compound 3-11, (S and R)-5-(aminomethyl)-3-{2-[(6-methoxy-2-methyl-1,2,3,4-tetrahydroisoquinolin-7-yl)amino]quinazolin-7-yl}-1,3-oxazolidin-2-one]	82.4
CNCC1CN(c2ccc3cnc(Nc4cc5c(cc4OC)CCN(C)C5)nc3c2)C(=O)O1 (racemic) [Compound 3-12, (S and R)-3-12-[(6-methoxy-2-methyl-1,2,3,4-tetrahydroiso-quinolin-7-yl)amino]quinazolin-7-yl}-5-[(methylamino)methyl]-1,3-oxazolidin-2-one]	94.2
COc1cc2c(cc1Nc1ncc3ccc(-n4nc(C)nc4C4CCCN4)cc3n1)CN(C)CC2 (racemic) [Compound 3-19, (S and R)-N-(6-methoxy-2-meth-yl-1,2,3,4-tetrahydroisoquinolin-7-yl)-7-[3-methyl-5-(pyrrolidin-2-yl)-1H-1,2,4-triazol-1-yl]quin-azolin-2-amine]	638
COc1cc2c(cc1Nc1ncc3ccc(N4CCCC(CN5CCCC5=O)C4)cc3n1)CN(C)CC2 (racemic) [Compound 3-20, (S and R)-1-1(1-12-[(6-methoxy-2-methyl-1,2,3,4-tetrahydroiso-quinolin-7-yl)amino]quinazolin-7-yl}piperidin-3-yl)methyl]-pyrrolidin-2-one]	771
COc1cc2c(cc1Nc1ncc3ccc(NCC4CNC(=O)O4)cc3n1)CN(C)CC2 (racemic) [Compound 3-26, (S and R)-5-[({2-1(6-methoxy-2-methyl-1,2,3,4-tetrahydroiso-quinolin-7-yl)amino]quinazolin-7-yl}amino)methyl]-1,3-oxazol-idin-2-one]	149
COc1cc2c(cc1Nc1ncc3ccc(N(C)CC4CNC(=O)O4)cc3n1)CN(C)CC2 (racemic) [Compound 3-30, (S and R)-5-1112-1(6-methoxy-2-methyl-1,2,3,4-tetrahydroiso-quinolin-7-yl)amino]quinazolin-7-yl}(methyl)amino]methyl}-1,3-oxazolidin-2-one]	148
COc1cc2c(cc1Nc1ncc3ccc(NCC4CCS(=O)(=O)C4)cc3n1)CN(C)CC2 (racemic) [Compound 3-37, (S and R)-3-1({2-[(6-methoxy-2-methyl-1,2,3,4-tetrahydroiso-quinolin-7-yl)amino]quinazolin-7-yl}amino)methyl]-1lambda~ 6~-thiolane-1,1-dione]	73.1
COc1cc2c(cc1Nc1ncc3ccc(NC4CCCC(O)C4)cc3n1)CN(C)CC2 (racemic) [Compound 3-39, (±)-3-({2-[(6-methoxy-2-methyl-1,2,3,4-tetrahydroisoquinolin-7-yl)amino]quinazolin-7-yl}-amino)cyclohexan-1-ol]	228
COc1cc2c(cc1Nc1ncc3ccc(N4CC(O)(C(F)(F)F)C4)cc3n1)CN(C)CC2 (racemic) [Compound 3-54, (S and R)-1-12-[(6-methoxy-2-methyl-1,2,3,4-tetrahydroiso-quinolin-7-yl)amino]quinazolin-7-yl}-3-(trifluoromethyl)azet-idin-3-ol]	189
COc1cc2c(cc1Nc1ncc3ccc(NC4CCN(C)C4=O)cc3n1)CN(C)CC2 (racemic) [Compound 3-56, (S and R)-3-({2-[(6-methoxy-2-methyl-1,2,3,4-tetrahydroiso-quinolin-7-yl)amino]quinazolin-7-yl}amino)-1-methylpyrrolidin-2-one]	97.6
COc1cc2c(cc1Nc1ncc3ccc(NCC4CC(=O)N(C)C4)cc3n1)CN(C)CC2 (racemic) [Compound 3-59, (S and R)-4-[({2-[(6-methoxy-2-methyl-1,2,3,4-tetrahydroiso-quinolin-7-yl)amino]quinazolin-7-yl}amino)methyl]-1-methyl-pyrrolidin-2-one]	365
COc1cc2c(cc1Nc1ncc3ccc(N4CC5CCS(=O)(=O)C5C4)cc3n1)CN(C)CC2 (racemic) [Compound 3-60, (±)-5-{2~-[(6-methoxy-2-meth-yl-1,2,3,4-tetrahydroisoquinolin-7-yl)amino]quinazolin-7-yl}-hexahydro-1lambda~6~-thieno-[2,3-c]pyrrole-1,1(2H)-dione]	807
COc1cc2c(cc1Nc1ncc3ccc(NC4CCCOC4)cc3n1)CN(C)CC2 (racemic) [Compound 3-69, (S and R)-N-2~-(6-methoxy-2-methyl-1,2,3,4-tetrahydroiso-quinolin-7-yl)-N~7~-(oxan-3-yl)quinazoline-2,7-diamine]	470
COc1cc2c(cc1Nc1ncc3ccc(NCC4(C)CCOC4)cc3n1)CN(C)CC2 (racemic) [Compound 3-75, (S and R)-N~2~-(6-methoxy-2-methyl-1,2,3,4-tetrahydroiso-quinolin-7-yl)-N~7~-[(3-meth-yloxolan-3-yl)methyl]quinaz-oline-2,7-diamine]	90.1
CNC(=O)C(C)c1ccc(Nc2ncc3cc(F)c(-c4cnc5c(c4C)NCCO5)cc3n2)cc1 (single isomer, unassigned) [Compound 1-116, (R or S)-2-(4-{[6-fluoro-7-(8-methyl-2,3-dihydro-1H-pyrido[2,3-b][1,4]oxazin-7-yl)quinazolin-2-yl]amino}phenyl)-N-methylpropanamide]	0.221
CNC(=O)C(C)c1ccc(Nc2ncc3cc(F)c(-c4cnc5c(c4C)NCCO5)cc3n2)cc1 (single isomer, unassigned) [Compound 1-117, (R or S)-2-(4-{[6-fluoro-7-(8-methyl-2,3-dihydro-1H-pyrido[2,3-b][1,4]oxazin-7-yl)quinazolin-2-yl]amino}phenyl)-N-methylpropanamide]	0.0705
CNC(=O)C1CCc2cc(Nc3ncc4cc(F)c(-c5cnc6c(c5C)NCCO6)cc4n3)ccc21 (single isomer, unassigned) [Compound 1-118, (R or S)-5-{[6-fluoro-7-(8-methyl-2,3-dihydro-1H-pyrido[2,3-b][1,4]oxazin-7-yl)quinazolin-2-yl]amino}-N-methyl-2,3-dihydro-1H-indene-1-carboxamide]	0.0363
